Patent publication US5460977A, “Peptide having allergenicity” (Torii & Co., priority 1992, dated 1995)
Positions of bridges follow the written chain, without caps; N, C: chain ends. Residues, ends and D or L forms follow the SMILES beside them. Chains are numbered I, II in the order given.

Columns and labels:
[1] = system: peripheral blood lymphocytes of non-allergic subject; assay: Blast formation of lymphocytes (3H-thymidine incorporation), non-allergic subject; assay type: cell-based, human; conditions: Specimen 4, lymphocytes of non-allergic subject; 7 days culture with peptide, 3H-thymidine overnight
Experimental: (§1) Blast formation of lymphocytes by peptides of formula I-V of the present invention
(§2) Peripheral blood lymphocytes collected from a mite-allergic patient or a non-allergic subject were suspended in a cell culture medium RPMI 1640 supplemented with 10% fetal bovine serum, so as to give a suspension of 1×10^6 cells/ml. Then, the suspension (0.2 ml/well) prepared above was placed in a 96-well microplate for cell culture and further, 20 μl each of a solution of one of the peptides of the formula I-V was placed in the respective wells. The lymphocytes thus treated were cultivated in a humidified atmosphere containing 5% CO2 at 37° C. for 7 days. Thereafter, 20 μl of a ^3 H-thymidine solution (12.5 μCi/ml) was added to each of the wells and allowed to react overnight. The peripheral blood lymphocytes were then collected onto filter, and the radioactivity was measured by a liquid scintillation counter.
(§3) As is apparent from Table 1, virtually no incorporation of ^3 H-thymidine was recognized in the peripheral blood lymphocyte of a non-allergic subject, while a high radioactivity was detected from the peripheral blood lymphocytes of a mite-allergic patient.

[2] = system: peripheral blood lymphocytes of mite-allergic patient; assay: Blast formation of lymphocytes (3H-thymidine incorporation), mite-allergic patients; assay type: cell-based, human; conditions: 7 days culture with peptide, 3H-thymidine overnight; for radioactivity of 3H-thymidine incorporated into lymphocytes, Specimen 1: Specimen 1, lymphocytes of mite-allergic patient; for radioactivity of 3H-thymidine incorporated into lymphocytes, Specimen 2: Specimen 2, lymphocytes of mite-allergic patient; for radioactivity of 3H-thymidine incorporated into lymphocytes, Specimen 3: Specimen 3, lymphocytes of mite-allergic patient
Experimental: as §1, §2, §3

Row | Compound | radioactivity of 3H-thymidine incorporated into lymphocytes, Specimen 4 [1] | radioactivity of 3H-thymidine incorporated into lymphocytes, Specimen 1 [2] | radioactivity of 3H-thymidine incorporated into lymphocytes, Specimen 2 [2] | radioactivity of 3H-thymidine incorporated into lymphocytes, Specimen 3 [2]
1 | H-DQVDVKDCANNEIKK-OH [I, H-Asp-Gln-Val-Asp-Val-Lys-Asp-Cys-Ala-Asn-Asn-Glu-Ile-Lys-Lys-OH] | < 100 cpm | 281 cpm | 389 cpm | 282 cpm
2 | H-GVLACAIATHAKIRD-OH [III, H-Gly-Val-Leu-Ala-Cys-Ala-Ile-Ala-Thr-His-Ala-Lys-Ile-Arg-Asp-OH] | < 100 cpm | 547 cpm | 259 cpm | 158 cpm
3 | CC[C@H](C)[C@H](NC(=O)[C@H](C)NC(=O)[C@H](CSSC[C@H](NC(=O)[C@H](C)NC(=O)[C@H](CC(C)C)NC(=O)[C@@H](NC(=O)CN)C(C)C)C(=O)N[C@@H](C)C(=O)N[C@H](C(=O)N[C@@H](C)C(=O)N[C@H](C(=O)N[C@@H](Cc1c[nH]cn1)C(=O)N[C@@H](C)C(=O)N[C@@H](CCCCN)C(=O)N[C@H](C(=O)N[C@@H](CCCNC(=N)N)C(=O)N[C@@H](CC(=O)O)C(=O)O)[C@@H](C)CC)[C@@H](C)O)[C@@H](C)CC)NC(=O)[C@H](C)NC(=O)[C@H](CC(C)C)NC(=O)[C@@H](NC(=O)CN)C(C)C)C(=O)N[C@@H](C)C(=O)N[C@H](C(=O)N[C@@H](Cc1c[nH]cn1)C(=O)N[C@@H](C)C(=O)N[C@@H](CCCCN)C(=O)N[C@H](C(=O)N[C@@H](CCCNC(=N)N)C(=O)N[C@@H](CC(=O)O)C(=O)O)[C@@H](C)CC)[C@@H](C)O [IV] (I: H-GVLACAIATHAKIRD-OH / II: H-GVLACAIATHAKIRD-OH; disulfide I:5-II:5) | < 100 cpm | 374 cpm | 324 cpm | 162 cpm
4 | CC[C@H](C)[C@H](NC(=O)[C@H](CCC(=O)O)NC(=O)[C@H](CC(N)=O)NC(=O)[C@H](CC(N)=O)NC(=O)[C@H](C)NC(=O)[C@H](CSSC[C@H](NC(=O)[C@H](CC(=O)O)NC(=O)[C@H](CCCCN)NC(=O)[C@@H](NC(=O)[C@H](CC(=O)O)NC(=O)[C@@H](NC(=O)[C@H](CCC(N)=O)NC(=O)[C@@H](N)CC(=O)O)C(C)C)C(C)C)C(=O)N[C@@H](C)C(=O)N[C@@H](CC(N)=O)C(=O)N[C@@H](CC(N)=O)C(=O)N[C@@H](CCC(=O)O)C(=O)N[C@H](C(=O)N[C@@H](CCCCN)C(=O)N[C@@H](CCCCN)C(=O)O)[C@@H](C)CC)NC(=O)[C@H](CC(=O)O)NC(=O)[C@H](CCCCN)NC(=O)[C@@H](NC(=O)[C@H](CC(=O)O)NC(=O)[C@@H](NC(=O)[C@H](CCC(N)=O)NC(=O)[C@@H](N)CC(=O)O)C(C)C)C(C)C)C(=O)N[C@@H](CCCCN)C(=O)N[C@@H](CCCCN)C(=O)O [II] (I: H-DQVDVKDCANNEIKK-OH / II: H-DQVDVKDCANNEIKK-OH; disulfide I:8-II:8) | < 100 cpm | 219 cpm | 125 cpm | 158 cpm
5 | CC[C@H](C)[C@H](NC(=O)[C@H](C)NC(=O)[C@H](CSSC[C@H](NC(=O)[C@H](CC(=O)O)NC(=O)[C@H](CCCCN)NC(=O)[C@@H](NC(=O)[C@H](CC(=O)O)NC(=O)[C@@H](NC(=O)[C@H](CCC(N)=O)NC(=O)[C@@H](N)CC(=O)O)C(C)C)C(C)C)C(=O)N[C@@H](C)C(=O)N[C@@H](CC(N)=O)C(=O)N[C@@H](CC(N)=O)C(=O)N[C@@H](CCC(=O)O)C(=O)N[C@H](C(=O)N[C@@H](CCCCN)C(=O)N[C@@H](CCCCN)C(=O)O)[C@@H](C)CC)NC(=O)[C@H](C)NC(=O)[C@H](CC(C)C)NC(=O)[C@@H](NC(=O)CN)C(C)C)C(=O)N[C@@H](C)C(=O)N[C@H](C(=O)N[C@@H](Cc1c[nH]cn1)C(=O)N[C@@H](C)C(=O)N[C@@H](CCCCN)C(=O)N[C@H](C(=O)N[C@@H](CCCNC(=N)N)C(=O)N[C@@H](CC(=O)O)C(=O)O)[C@@H](C)CC)[C@@H](C)O [V] (I: H-DQVDVKDCANNEIKK-OH / II: H-GVLACAIATHAKIRD-OH; disulfide I:8-II:5) | < 100 cpm | 1457 cpm | 430 cpm | 179 cpm
